Structures can show the parent of a compound that is named as a salt.
Columns and labels:
human H3 receptor = human H3 receptor (Homo sapiens (Human), UniProt Q9Y5N1); assay: Functional assay II, [35S]GTPγS assay; type: biochemical; conditions: membranes from CHO cells stably expressing the human H3 receptor
Experimental: The ability of the compounds to bind and interact with the human H3 receptor as agonists, inverse agonists and/or antagonists, is determined by a functional assay, named [^35S]GTPγS assay. The assay measures the activation of G proteins by catalyzing the exchange of guanosine 5′-diphosphate (GDP) by guanosine 5′-triphosphate (GTP) at the -subunit. The GTP-bounded G proteins dissociate into two subunits, GGTP and Gβγ, which in turn regulate intracellular enzymes and ion channels. GTP is rapidly hydrolysed by the G-sub-unit (GTPases) and the G protein is deactivated and ready for a new GTP exchange cycle. […] GTPγS, a non-hydrolysed analogue of GTP, is determined. This process can be monitored in vitro by incubating cell membranes containing the G protein coupled receptor H3 with GDP and [^35S] […] This procedure is repeated twice except for the last homogenization step, the protein concentration is determined, and membranes are diluted to a protein concentration of 2 mg/ml, aliquoted and kept at −80° C. until use.
In order to study the presence and the potency of an inverse agonist/antagonist, the H3-receptor agonist ligand R-α-methyl histamine (RAMHA) is added. The ability of the test compound to counteract the effect of RAMHA is measured. […] The plates are centrifuged at 1500 rpm for 10 min and the radioactivity is measured using a Top-counter. […]

[1] = tested on: Sprague-Dawley (SD) male rats; assay: Open cage schedule-fed rat model; type: in vivo; conditions: dose 15 mg/kg p.o.
Experimental: The ability of the present compounds to reduce weight is determined using the in vivo open cage Schedule-fed rat model.
Sprague-Dawley (SD) male rats of an age of about 1½ to 2 months and a weight of about 200-250 g are purchased from Møllegård Breeding and Research Centre A/S (Denmark). On arrival they are allowed some days of acclimatisation before being placed in individual open plastic cages. They are habituated to the presence of food (Altromin pelleted rat chow) in their home cage for only 7 hours each day (from 07.30 to 14.30, seven days a week). Water is present ad libitum. Once the consumption of food has stabilised after 7 to 9 days, the animals are ready for use.
Each animal is used only once to avoid carry-over effects between treatments. During the test sessions, the test compound is administered intraperitoneally or orally 30 min before the start of the sessions. One group of animals is administered the test compound at different doses, and a control group of animals receives vehicle. Food and water intake are monitored at 1, 2 and 3 hours post administration.
Any side effects (manifested as barrel-rolling, bushy fur etc.) may rapidly be detected, since the animals are kept in transparent plastic cages to enable continuous monitoring.

Sequence of human H3 receptor (Q9Y5N1 whole entry): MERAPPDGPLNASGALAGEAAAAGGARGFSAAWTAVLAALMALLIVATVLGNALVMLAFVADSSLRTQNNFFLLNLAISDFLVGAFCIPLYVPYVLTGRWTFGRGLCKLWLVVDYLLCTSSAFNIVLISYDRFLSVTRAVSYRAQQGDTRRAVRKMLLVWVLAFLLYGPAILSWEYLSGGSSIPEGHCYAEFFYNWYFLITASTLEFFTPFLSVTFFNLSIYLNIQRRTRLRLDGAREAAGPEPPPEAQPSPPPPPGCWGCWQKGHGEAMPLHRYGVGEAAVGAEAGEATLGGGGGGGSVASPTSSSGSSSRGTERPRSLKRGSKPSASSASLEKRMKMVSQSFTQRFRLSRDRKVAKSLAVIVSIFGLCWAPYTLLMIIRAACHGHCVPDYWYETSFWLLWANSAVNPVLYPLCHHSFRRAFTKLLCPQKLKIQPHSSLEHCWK

Row | SMILES | Ki (human H3 receptor) [nM] | Open cage schedule-fed rat model, food intake at 3 h [1]
1 | c1cc2nc(N3CCN(C4CC4)CC3)sc2cc1CNC1CC1 [Example 27, Cyclopropyl-[2-(4-cyclopropylpiperazin-1-yl)benzothiazol-6-ylmethyl]-amine, trifluoroacetate] | 0.9 | 82.9 % of vehicle
2 | O=C(O)C(F)(F)F.c1cc2nc(N3CCN(C4CC4)CC3)sc2cc1CN1CCCC1 [Example 17, 2-(4-Cyclopropylpiperazin-1-yl)-6-(pyrrolidin-1-ylmethyl)benzothiazole, trifluoroacetate] | 1.8 | 81.2 % of vehicle
